In ChEMBL document CHEMBL4665855, “Discovery of DS34942424: An orally potent analgesic without mu opioid receptor agonist activity” (Bioorg Med Chem, 2020):

Assays:
[1] = Effect on spontaneous locomotory activity in orally dosed ddY mouse measured for 1 hr; assay type: ADME, organism-based; details: in vivo, po
Mus musculus [2] = assay: Antinociceptive activity in orally dosed ddY mouse model assessed as inhibition of acetic acid-induced writhes pretreated for 30 mins followed by acetic acid challenge and measured for 25 mins post acetic acid challenge; assay type: functional; details: po, 55 min
[3] = Protective index, ratio of ID50 for locomotory activity to ED50 for antinociceptive activity in orally dosed ddY mouse; assay type: toxicity, organism-based; details: in vivo, po
[4] = 1-Octanol-PBS buffer distribution coefficient, log D of compound at pH 7.4; assay type: physicochemical
Mus musculus [5] = assay: Antinociceptive activity in ddY mouse model assessed as inhibition of acetic acid-induced writhes at 30 mg/kg, po pretreated for 30 mins followed by acetic acid challenge and measured for 25 mins post acetic acid challenge; assay type: functional; details: 55 min
[6] = AUC in ddY mouse at 10 mg/kg, po by LC-MS/MS method; assay type: ADME, organism-based; design: dose 10 mg/kg; details: in vivo
hERG (KCNH2) [7] = biological target: T1, hERG (KCNH2) (Homo sapiens, UniProt Q12809); assay: Inhibition of human ERG expressed in HEK293 cells at 10 uM at - 80 mV holding potential by whole cell patch clamp assay relative to control; assay type: cell-based; details: HEK293 cells expressing human ERG
[8] = Cmax in ddY mouse at 10 mg/kg, po by LC-MS/MS method; assay type: ADME, organism-based; design: route oral, dose 10 mg/kg; details: in vivo
hERG (KCNH2) [9] = biological target: T1, hERG (KCNH2); assay: Inhibition of human ERG expressed in HEK293 cells at 30 uM at - 80 mV holding potential by whole cell patch clamp assay relative to control; assay type: cell-based; details: HEK293 cells expressing human ERG
[10] = Metabolic stability in CD1 mouse liver microsomes assessed as compound remaining measured after 0.5 hrs by LC/MS-MS analysis; assay type: ADME, Microsome; details: read-out: Stabilty
Mus musculus [11] = assay: Analgesic activity in formalin-induced orally dosed ddY mouse model of hyperalgesia assessed as time spent in paw licking during acute phase pretreated for 30 mins followed by formalin challenge and measured for 10 mins; assay type: functional; details: po, 0.5 h
Mu-type opioid receptor [12] = biological target: T2, Mu-type opioid receptor (Homo sapiens, UniProt P35372); assay: Displacement of [3H]diprenorphine from human MOR incubated for 1 hr
Mu-type opioid receptor [13] = biological target: T2, Mu-type opioid receptor; assay: Agonist activity at human MOR expressed in CHOK1 cells assessed as inhibition of forskolin-stimulated cAMP accumulation by FRET assay relative to DAMGO; assay type: cell-based; details: CHO-K1, human
[14] = Half life in ddY mouse at 10 mg/kg, po by LC-MS/MS method; assay type: ADME, organism-based; details: in vivo

T1 sequence (Q12809 whole entry): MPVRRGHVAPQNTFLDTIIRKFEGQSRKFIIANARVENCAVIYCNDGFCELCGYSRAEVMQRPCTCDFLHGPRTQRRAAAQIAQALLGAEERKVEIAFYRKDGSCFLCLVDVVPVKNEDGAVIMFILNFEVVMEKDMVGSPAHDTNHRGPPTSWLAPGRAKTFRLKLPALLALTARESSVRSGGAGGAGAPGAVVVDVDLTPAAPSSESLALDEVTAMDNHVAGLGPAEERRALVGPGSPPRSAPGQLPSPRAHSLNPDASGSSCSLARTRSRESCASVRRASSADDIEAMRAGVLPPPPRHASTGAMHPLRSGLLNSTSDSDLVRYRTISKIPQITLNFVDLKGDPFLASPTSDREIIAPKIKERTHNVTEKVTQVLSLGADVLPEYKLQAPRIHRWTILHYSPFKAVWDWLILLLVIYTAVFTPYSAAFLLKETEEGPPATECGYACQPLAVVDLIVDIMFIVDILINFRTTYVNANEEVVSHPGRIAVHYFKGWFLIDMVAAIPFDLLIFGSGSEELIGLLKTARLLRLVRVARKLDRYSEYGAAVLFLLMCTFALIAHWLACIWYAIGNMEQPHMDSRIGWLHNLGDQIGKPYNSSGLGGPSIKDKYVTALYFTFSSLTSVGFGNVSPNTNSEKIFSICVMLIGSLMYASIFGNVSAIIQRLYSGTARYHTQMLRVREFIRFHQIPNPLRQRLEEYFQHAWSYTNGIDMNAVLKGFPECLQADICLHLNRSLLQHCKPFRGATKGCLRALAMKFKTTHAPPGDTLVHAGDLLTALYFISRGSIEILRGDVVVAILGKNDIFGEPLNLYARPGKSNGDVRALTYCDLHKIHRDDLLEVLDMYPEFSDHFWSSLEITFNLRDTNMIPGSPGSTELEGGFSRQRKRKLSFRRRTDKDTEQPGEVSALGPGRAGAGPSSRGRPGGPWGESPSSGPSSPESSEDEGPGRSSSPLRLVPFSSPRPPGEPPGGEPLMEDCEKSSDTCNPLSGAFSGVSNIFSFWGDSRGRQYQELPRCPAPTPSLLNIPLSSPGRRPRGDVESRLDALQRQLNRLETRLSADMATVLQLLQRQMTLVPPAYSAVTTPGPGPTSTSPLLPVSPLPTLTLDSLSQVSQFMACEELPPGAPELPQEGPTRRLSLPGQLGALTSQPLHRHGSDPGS
T2 sequence (P35372 whole entry): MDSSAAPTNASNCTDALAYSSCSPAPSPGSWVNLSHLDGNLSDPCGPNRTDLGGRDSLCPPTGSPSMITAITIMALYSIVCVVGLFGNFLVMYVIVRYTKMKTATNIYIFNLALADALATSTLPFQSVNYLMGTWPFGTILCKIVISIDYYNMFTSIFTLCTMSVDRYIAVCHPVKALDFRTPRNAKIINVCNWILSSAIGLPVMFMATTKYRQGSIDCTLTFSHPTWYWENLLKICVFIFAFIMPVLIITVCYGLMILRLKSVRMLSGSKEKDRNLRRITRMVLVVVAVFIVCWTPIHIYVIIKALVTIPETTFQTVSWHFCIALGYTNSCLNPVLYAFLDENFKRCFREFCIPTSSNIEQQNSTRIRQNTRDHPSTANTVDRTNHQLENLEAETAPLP

Row | Compound | ID50 [1] | ED50 (Mus musculus [2]) | selectivity ratio [3] | logD [4] | inhibition in vivo at 30 mg/kg (Mus musculus [5]) | AUC [6] | inhibition at 10 µM (hERG (KCNH2) [7]) | Cmax [8] | inhibition at 30 µM (hERG (KCNH2) [9]) | remaining at 0.5 h [10] | ED50 (Mus musculus [11]) | EC50 (Mu-type opioid receptor [12]) | Emax (Mu-type opioid receptor [13]) | half-life [14]
1 | CC12CCN(CC1)Cc1c([nH]c3ccccc13)C2=O | 16 mg/kg | 7.8 mg/kg | 2.1 | – | – | – | – | – | – | – | – | – | – | –
2 | C/C=C1/CN2CC[C@H]1C(=O)c1[nH]c3ccccc3c1C2 | 69 mg/kg | 32 mg/kg | 2.2 | – | – | – | – | – | – | – | – | – | – | –
3 | CN1C(=O)c2[nH]c3ccccc3c2CN2CC[C@H]1C2 | 19 mg/kg | 8.7 mg/kg | 2.1 | – | – | – | – | – | – | – | – | – | – | –
4 | CN1C(=O)c2ccccc2CN2C[C@@H]1C1(CC1)C2 | – | 15 mg/kg | – | 0.5 | 84% | 5.24 µM·h | 14% | 5240 nM | 15% | 81% | – | – | – | –
5 | CN1C(=O)c2ccccc2CN2CC[C@H]1C2 | > 85 mg/kg | 25 mg/kg | > 3.4 | 0.3 | 97% | 7.79 µM·h | 5% | 3740 nM | – | 82% | – | – | – | –
6 | CN1C(=O)c2cc(F)ccc2CN2C[C@@H]1C1(CC1)C2 | – | 36 mg/kg | – | 0.9 | – | – | – | – | 14% | 81% | – | – | – | –
7 | CN1C(=O)c2c(F)cccc2CN2C[C@@H]1C1(CC1)C2 | – | 35 mg/kg | – | 1 | – | – | – | – | 0% | 79% | – | – | – | –
8 | CN1C(=O)c2ccc(F)cc2CN2C[C@@H]1C1(CC1)C2 | 66 mg/kg | 6.4 mg/kg | 10.3 | 0.9 | – | 1.74 µM·h | – | 1470 nM | 2% | 83% | 16 mg/kg | > 100 µM | 18% | 1.9 h
9 | O=C1c2ccccc2CN2CCCN1CC2 | – | – | – | 0.6 | 24% | – | -1% | – | – | 78% | – | – | – | –
10 | CN1C(=O)c2cccc(F)c2CN2C[C@@H]1C1(CC1)C2 | – | 14 mg/kg | – | 0.9 | – | – | – | – | 0% | 79% | – | – | – | –
11 | CCN1C(=O)c2ccccc2CN2CC[C@H]1C2 | – | – | – | 0.4 | 45% | – | 6% | – | – | 80% | – | – | – | –
12 | CC1c2ccccc2C(=O)N(C)[C@H]2CCN1C2 (some centres undefined) | – | – | – | 0.3 | 31% | – | 6% | – | – | 81% | – | – | – | –
13 | CN1C(=O)c2ccccc2CN2CCC[C@H]1C2 | – | 23 mg/kg | – | 0.3 | 77% | 1.97 µM·h | 5% | 1970 nM | – | 62% | – | – | – | –
